Test results as given in patent publication US8324264B1, “Inhibitors of bacterial biofilms and related methods” (Sequoia Sciences, Inc., priority 2011, dated 2012).
Values after ≈ are worked out from the molar mass of the structure shown.

Columns and labels:
P. aeruginosa biofilms = assay: Biofilm growth assay (spreading biofilm on semi-solid agar), P. aeruginosa; assay type: cell-based; conditions: biofilm growth assay, overnight 37° C., vs negative controls, Tables 1-5; for IC85: Pseudomonas aeruginosa, read-out: P. aeruginosa: concentration that reduces the area of the spreading biofilm by greater than or equal to 85%
How it was run: (§1)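 Compound added to semi-solid agar: M8 with 0.2% glucose, 100 μM CaCl2, 1 mM MgSO4, 0.5% Casamino acids (P. aeruginosa) or LB with 0.6% agar, 0.5% glucose (E. coli). Center-inoculated with 5 μL overnight culture, incubated overnight at 37 °C; value is concentration (μg/ml) reducing spreading area ≥85% versus negative controls.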

E. coli biofilms = assay: Biofilm growth assay (spreading biofilm on semi-solid agar), E. coli; assay type: cell-based; conditions: biofilm growth assay, overnight 37° C., vs negative controls, Tables 1-5; for IC85: Escherichia coli, read-out: E. coli: concentration that reduces the area of the spreading biofilm by greater than or equal to 85%
How it was run: as §1

C[C@H]1[C@H](C)CC[C@]2(C(=O)O)CC[C@]3(C)C(=CC[C@@H]4[C@@]5(C)CC[C@H](O)C(C)(C)[C@@H]5CC[C@]43C)[C@H]12 [Ursolic acid, ursolic acid, reference compound]
IC85 (P. aeruginosa biofilms): 8 µg/mL (≈ 17.5 µM)
IC85 (E. coli biofilms): 8 µg/mL (≈ 17.5 µM)

CC1(C)CC[C@]2(C(=O)Nc3nnc(S(N)(=O)=O)s3)CC[C@]3(C)C(=CCC4[C@@]5(C)Cc6c(n[nH]c6N)C(C)(C)C5CC[C@]43C)C2C1 (stereo partly drawn) [Compound 80, (4aS,6aS,6bR,13aR)-12-Amino-2,2,6a,6b,9,9,13a-heptamethyl-N-(5-sulfamoyl-1,3,4-thiadiazol-2-yl)-2,3,4,4a,5,6,6a,6b,7,8,8a,9,11,13,13a,13b,14,15b-octadecahydro-1H-chryseno[1,2-f]indazole-4-a-carboxamide]
P. aeruginosa: concentration that reduces the area of the spreading biofilm by greater than or equal to 85% (P. aeruginosa biofilms): 1 µg/mL
E. coli: concentration that reduces the area of the spreading biofilm by greater than or equal to 85% (E. coli biofilms): 1 µg/mL

CC1(C)CC[C@]2(c3cc(N)[nH]n3)CC[C@]3(C)C(=CCC4[C@@]5(C)Cc6c(n[nH]c6N)C(C)(C)C5CC[C@]43C)C2C1 (stereo partly drawn) [Compound 60, (4aS,6aS,6bR,13aR)-4-a-(5-Amino-1H-pyrazol-3-yl)-2,2,6a,6b,9,9,13a-heptamethyl-2,3,4,4a,5,6,6a,6b,7,8,8a,9,11,13,13a,13b,14,15b-octadecahydro-1H-chryseno[1,2-f]indazol-12-amine]
P. aeruginosa: concentration that reduces the area of the spreading biofilm by greater than or equal to 85% (P. aeruginosa biofilms): 0.5 µg/mL
E. coli: concentration that reduces the area of the spreading biofilm by greater than or equal to 85% (E. coli biofilms): 1 µg/mL

CC1(C)CC[C@]2(C(=O)O)CC[C@]3(C)C(=C(c4cccc5c4CCNC5)CC4[C@@]5(C)Cc6c(n[nH]c6N)C(C)(C)C5CC[C@]43C)C2C1 (stereo partly drawn) [Example 47, (4aS,6aS,6bR,13aR)-12-Amino-2,2,6a,6b,9,9,13a-heptamethyl-15-(1,2,3,4-tetrahydroisoquinolin-5-yl)-2,3,4,4a,5,6,6a,6b,7,8,8a,9,11,13,13a,13b,14,15b-octadecahydro-1H-chryseno[1,2-f]indazole-4-a-carboxylic acid]
P. aeruginosa: concentration that reduces the area of the spreading biofilm by greater than or equal to 85% (P. aeruginosa biofilms): 0.5 µg/mL
E. coli: concentration that reduces the area of the spreading biofilm by greater than or equal to 85% (E. coli biofilms): 1 µg/mL

CC1(C)CC[C@]2(c3n[nH]c(O)c3N3CCOCC3)CC[C@]3(C)C(=CCC4[C@@]5(C)Cc6c(n[nH]c6N)C(C)(C)[C@@H]5CC[C@]43C)[C@@H]2C1 (stereo partly drawn) [Compound 88, 3-((4aS,6aS,6bR,13aR)-12-Amino-2,2,6a,6b,9,9,13a-heptamethyl-2,3,4,4a,5,6,6a,6b,7,8,8a,9,11,13,13a,13b,14,15b-octadecahydro-1H-chryseno[1,2-f]indazol-4-a-yl)-4-morpholino-1H-pyrazol-5-ol]
IC85 (P. aeruginosa biofilms): 0.25 µg/mL (≈ 0.405 µM)
IC85 (E. coli biofilms): 0.5 µg/mL (≈ 0.811 µM)

CC1(C)CC[C@]2(C(=O)O)CC[C@]3(C)C(=C(c4ccc(N5CCOCC5)nc4)CC4[C@@]5(C)Cc6c(n[nH]c6N)C(C)(C)[C@@H]5CC[C@]43C)[C@@H]2C1 (stereo partly drawn) [Example 54, (4aS,6aS,6bR,8aR,13aR,15bS)-12-Amino-2,2,6a,6b,9,9,13a-heptamethyl-15-(6-morpholinopyridin-3-yl)-2,3,4,4a,5,6,6a,6b,7,8,8a,9,11,13,13a,13b,14,15b-octadecahydro-1H-chryseno[1,2-f]indazole-4-a-carboxylic acid]
P. aeruginosa: concentration that reduces the area of the spreading biofilm by greater than or equal to 85% (P. aeruginosa biofilms): 1 µg/mL
E. coli: concentration that reduces the area of the spreading biofilm by greater than or equal to 85% (E. coli biofilms): 2 µg/mL

CC1(C)CC[C@]2(c3n[nH]c(O)c3F)CC[C@]3(C)C(=CCC4[C@@]5(C)Cc6c(n[nH]c6N)C(C)(C)C5CC[C@]43C)C2C1 (stereo partly drawn) [Compound 83, 3-((4aS,6aS,6bR,13aR)-12-Amino-2,2,6a,6b,9,9,13a-heptamethyl-2,3,4,4a,5,6,6a,6b,7,8,8a,9,11,13,13a,13b,14,15b-octadecahydro-1H-chryseno[1,2-f]indazol-4-a-yl)-4-fluoro-1H-pyrazol-5-ol]
P. aeruginosa: concentration that reduces the area of the spreading biofilm by greater than or equal to 85% (P. aeruginosa biofilms): 0.25 µg/mL
E. coli: concentration that reduces the area of the spreading biofilm by greater than or equal to 85% (E. coli biofilms): 0.5 µg/mL

CC1(C)CC[C@]2(C(=O)O)CC[C@]3(C)C(=CCC4[C@@]5(C)Cc6c(n[nH]c6CO)C(C)(C)C5CC[C@]43C)C2C1 (stereo partly shown) [G]
IC85 (P. aeruginosa biofilms): > 8 µg/mL
IC85 (E. coli biofilms): > 8 µg/mL

CC1(C)CC[C@]2(c3nnc(O)s3)CC[C@]3(C)C(=CCC4[C@@]5(C)Cc6c(n[nH]c6N)C(C)(C)C5CC[C@]43C)C2C1 (stereo partly drawn) [Compound 78, 5-((4aS,6aS,6bR,13aR)-12-Amino-2,2,6a,6b,9,9,13a-heptamethyl-2,3,4,4a,5,6,6a,6b,7,8,8a,9,11,13,13a,13b,14,15b-octadecahydro-1H-chryseno[1,2-f]indazol-4-a-yl)-1,3,4-thiadiazol-2-ol]
P. aeruginosa: concentration that reduces the area of the spreading biofilm by greater than or equal to 85% (P. aeruginosa biofilms): >1 µg/mL
E. coli: concentration that reduces the area of the spreading biofilm by greater than or equal to 85% (E. coli biofilms): 1 µg/mL

CC1(C)CC[C@]2(c3n[nH]c(O)c3CCN)CC[C@]3(C)C(=CCC4[C@@]5(C)Cc6c(n[nH]c6N)C(C)(C)[C@@H]5CC[C@]43C)[C@@H]2C1 (stereo partly drawn) [Compound 84, 3-((4aS,6aS,6bR,13aR)-12-Amino-2,2,6a,6b,9,9,13a-heptamethyl-2,3,4,4a,5,6,6a,6b,7,8,8a,9,11,13,13a,13b,14,15b-octadecahydro-1H-chryseno[1,2-f]indazol-4-a-yl)-4-(2-aminoethyl)-1H-pyrazol-5-ol]
IC85 (P. aeruginosa biofilms): 0.125 µg/mL (≈ 0.217 µM)
IC85 (E. coli biofilms): 0.5 µg/mL (≈ 0.87 µM)

Cc1ccc(C2=C3C4CC(C)(C)CC[C@]4(C(=O)O)CC[C@@]3(C)[C@]3(C)CCC4C(C)(C)c5n[nH]c(N)c5C[C@]4(C)C3C2)cc1N (stereo partly drawn) [Example 20, (4aS,6aS,6bR,13aR)-12-Amino-15-(3-amino-4-methylphenyl)-2,2,6a,6b,9,9,13a-heptamethyl-2,3,4,4a,5,6,6a,6b,7,8,8a,9,11,13,13a,13b,14,15b-octadecahydro-1H-chryseno[1,2-f]indazole-4-a-carboxylic acid]
P. aeruginosa: concentration that reduces the area of the spreading biofilm by greater than or equal to 85% (P. aeruginosa biofilms): 0.5 µg/mL
E. coli: concentration that reduces the area of the spreading biofilm by greater than or equal to 85% (E. coli biofilms): 2 µg/mL

CC1(C)CC[C@]2(C(=O)O)CC[C@]3(C)C(=C(c4cccc5[nH]ccc45)CC4[C@@]5(C)Cc6c(n[nH]c6N)C(C)(C)C5CC[C@]43C)C2C1 (stereo partly drawn) [Example 48, (4aS,6aS,6bR,13aR)-12-Amino-15-(1H-indol-4-yl)-2,2,6a,6b,9,9,13a-heptamethyl-2,3,4,4a,5,6,6a,6b,7,8,8a,9,11,13,13a,13b,14,15b-octadecahydro-1H-chryseno[1,2-f]indazole-4-a-carboxylic acid]
P. aeruginosa: concentration that reduces the area of the spreading biofilm by greater than or equal to 85% (P. aeruginosa biofilms): 0.5 µg/mL
E. coli: concentration that reduces the area of the spreading biofilm by greater than or equal to 85% (E. coli biofilms): 1 µg/mL

C[C@H]1[C@H](C)CC[C@]2(CO)CC[C@]3(C)C(=CC[C@@H]4[C@@]5(C)CC[C@H](O)C(C)(C)[C@@H]5CC[C@]43C)[C@H]12 [Uvaol, reference compound]
IC85 (P. aeruginosa biofilms): > 128 µg/mL
IC85 (E. coli biofilms): > 8 µg/mL

Lupeol [reference compound]
P. aeruginosa: concentration that reduces the area of the spreading biofilm by greater than or equal to 85% (P. aeruginosa biofilms): >16 µg/mL
E. coli: concentration that reduces the area of the spreading biofilm by greater than or equal to 85% (E. coli biofilms): >8 µg/mL

CC1(C)CC[C@]2(C(=O)O)CC[C@]3(C)C(=CC[C@@H]4[C@@]5(C)Cc6c(noc6N)C(C)(C)[C@@H]5CC[C@]43C)[C@@H]2C1 [K]
IC85 (P. aeruginosa biofilms): > 8 µg/mL
IC85 (E. coli biofilms): > 8 µg/mL

CC1(C)CC[C@]2(c3nnco3)CC[C@]3(C)C(=CCC4[C@@]5(C)Cc6c(n[nH]c6N)C(C)(C)C5CC[C@]43C)C2C1 (stereo partly drawn) [Compound 67, (4aS,6aS,6bR,13aR)-2,2,6a,6b,9,9,13a-Heptamethyl-4-a-(1,3,4-oxadiazol-2-yl)-2,3,4,4a,5,6,6a,6b,7,8,8a,9,11,13,13a,13b,14,15b-octadecahydro-1H-chryseno[1,2-f]indazol-12-amine]
P. aeruginosa: concentration that reduces the area of the spreading biofilm by greater than or equal to 85% (P. aeruginosa biofilms): 1 µg/mL
E. coli: concentration that reduces the area of the spreading biofilm by greater than or equal to 85% (E. coli biofilms): 2 µg/mL

CC1(C)CC[C@]2(C(=O)n3ccnc3N)CC[C@]3(C)C(=CCC4[C@@]5(C)Cc6c(n[nH]c6N)C(C)(C)C5CC[C@]43C)C2C1 (stereo partly drawn) [Compound 73, (2-Amino-1H-imidazol-1-yl)((4aS,6aS,6bR,13aR)-12-amino-2,2,6a,6b,9,9,13a-heptamethyl-2,3,4,4a,5,6,6a,6b,7,8,8a,9,11,13,13a,13b,14,15b-octadecahydro-1H-chryseno[1,2-f]indazol-4-a-yl)methanone]
IC85 (P. aeruginosa biofilms): 1 µg/mL (≈ 1.79 µM)
IC85 (E. coli biofilms): 1 µg/mL (≈ 1.79 µM)

C=C(C)[C@@H]1CC[C@]2(C(=O)O)CC[C@]3(C)[C@H](CC[C@@H]4[C@@]5(C)CC[C@H](O)C(C)(C)[C@@H]5CC[C@]43C)[C@@H]12 [Betulinic acid, reference compound]
IC85 (P. aeruginosa biofilms): > 16 µg/mL
IC85 (E. coli biofilms): > 16 µg/mL

CC1(C)CC[C@]2(C(=O)O)CC[C@]3(C)C(=C(c4cccc(C(N)=O)c4)CC4[C@@]5(C)Cc6c(n[nH]c6N)C(C)(C)C5CC[C@]43C)C2C1 (stereo partly drawn) [Example 19, (4aS,6aS,6bR,13aR)-12-Amino-15-(3-carbamoylphenyl)-2,2,6a,6b,9,9,13a-heptamethyl-2,3,4,4a,5,6,6a,6b,7,8,8a,9,11,13,13a,13b,14,15b-octadecahydro-1H-chryseno[1,2-f]indazole-4-a-carboxylic acid]
P. aeruginosa: concentration that reduces the area of the spreading biofilm by greater than or equal to 85% (P. aeruginosa biofilms): 1 µg/mL
E. coli: concentration that reduces the area of the spreading biofilm by greater than or equal to 85% (E. coli biofilms): 1 µg/mL

CC1(C)CC[C@]2(C(=O)O)CC[C@]3(C)C(C(=O)C=C4[C@@]5(C)Cc6c(n[nH]c6N)C(C)(C)[C@@H]5CC[C@]43C)[C@@H]2C1 (stereo partly shown) [M]
IC85 (P. aeruginosa biofilms): 8 µg/mL (≈ 15.8 µM)
IC85 (E. coli biofilms): 8 µg/mL (≈ 15.8 µM)
